Reference: PubChem BioAssay (NCI)
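Dose response: 5 concentrations. Exposure: 48 h. Format: 96-well plates. Endpoint: linear interpolation; highest concentration if not reached. Definition used: TGI = concentration required for complete inhibition of growth.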

How the values were obtained:
Experiment in all cases: NCI anticancer screen, dose series, 48 h
[1] = tested on: UO-31 renal
[2] = tested on: OVCAR-5 ovarian
[3] = tested on: U251 CNS
[4] = tested on: COLO 205 colon
[5] = tested on: HOP-92 NSCLC
[6] = tested on: HL-60(TB) leukemia
[7] = tested on: NCI/ADR-RES ovarian
[8] = tested on: CCRF-CEM leukemia
[9] = tested on: MDA-MB-231 breast
[10] = tested on: TK-10 renal
[11] = tested on: MDA-MB-435
[12] = tested on: SR leukemia
[13] = tested on: HS 578T breast
[14] = tested on: DU-145 prostate
[15] = tested on: SF-539 CNS
[16] = tested on: PC-3 prostate
[17] = tested on: HCT-116 colon
[18] = tested on: SW-620 colon
[19] = tested on: LOX IMVI melanoma
[20] = tested on: KM12 colon
[21] = tested on: NCI-H460 lung
[22] = tested on: K-562 leukemia
[23] = tested on: MDA-N
[24] = tested on: SN12C renal
[25] = tested on: MOLT-4 leukemia
[26] = tested on: RXF 393 renal
[27] = tested on: HCT-15 colon
[28] = tested on: IGROV1 ovarian
[29] = tested on: HT29 colon
[30] = tested on: NCI-H23 lung
[31] = tested on: NCI-H226 lung
[32] = tested on: OVCAR-8 ovarian
[33] = tested on: M14 melanoma
[34] = tested on: OVCAR-4 ovarian
[35] = tested on: UACC-257 melanoma
[36] = tested on: MCF7 breast
[37] = tested on: T-47D breast
[38] = tested on: EKVX NSCLC
[39] = tested on: SK-MEL-5 melanoma
[40] = tested on: RPMI-8226 leukemia
[41] = tested on: CAKI-1 renal
[42] = tested on: SNB-19 CNS
[43] = tested on: A549 NSCLC
[44] = tested on: ACHN renal
[45] = tested on: OVCAR-3 ovarian
[46] = tested on: SK-MEL-28 melanoma
[47] = tested on: SF-268 CNS
[48] = tested on: SK-OV-3 ovarian
[49] = tested on: SNB-75 CNS
[50] = tested on: A498 renal
[51] = tested on: MALME-3M melanoma
[52] = tested on: HCC-2998 colon
[53] = tested on: BT-549 breast
[54] = tested on: SK-MEL-2 melanoma
[55] = tested on: UACC-62 melanoma
[56] = tested on: NCI-H522 lung
[57] = tested on: 786-0 renal
[58] = tested on: SF-295 CNS
[59] = tested on: HOP-62 NSCLC

COc1cc2c(cc1OCCCC(=O)Nc1cc(C(=O)Nc3cc(C(=O)Nc4cc(C(=O)NCCCN(C)C)n(C)n4)n(C)c3)n(C)c1)N=CC1CCCN1C2=O (configuration not stated)
TGI [1]: 53 µM
TGI [2]: > 100 µM
TGI [3]: 59.8 µM
TGI [4]: > 100 µM
TGI [5]: 51.1 µM
TGI [6]: 16.3 µM
TGI [7]: > 100 µM
TGI [8]: > 100 µM
TGI [9]: > 100 µM
TGI [10]: 39.4 µM
TGI [11]: 64.5 µM
TGI [12]: 25.4 µM
TGI [13]: 48 µM
TGI [14]: > 100 µM
TGI [15]: 48.5 µM
TGI [16]: 48.9 µM
TGI [17]: > 100 µM
TGI [18]: 48.6 µM
TGI [19]: 55.5 µM
TGI [20]: 64.1 µM
TGI [21]: > 100 µM
TGI [22]: 39.8 µM
TGI [23]: 41.4 µM
TGI [24]: 51.3 µM
TGI [25]: 32.4 µM
TGI [26]: 42.3 µM
TGI [27]: > 100 µM
TGI [28]: 49.1 µM
TGI [29]: 44.5 µM
TGI [30]: 78.5 µM
TGI [31]: 51.3 µM
TGI [32]: > 100 µM
TGI [33]: 72.2 µM
TGI [34]: 38.6 µM
TGI [35]: 44 µM
TGI [36]: 58.7 µM
TGI [37]: > 100 µM
TGI [38]: > 100 µM
TGI [39]: 42.6 µM
TGI [40]: 82.8 µM
TGI [41]: 78.1 µM
TGI [42]: 49.7 µM
TGI [43]: > 100 µM
TGI [44]: 40 µM
TGI [45]: > 100 µM
TGI [46]: 33.9 µM
TGI [47]: 63.1 µM
TGI [48]: > 100 µM
TGI [49]: 44.7 µM
TGI [50]: 57.7 µM
TGI [51]: 36.6 µM
TGI [52]: 76.5 µM
TGI [53]: 44.7 µM
TGI [54]: 49.9 µM
TGI [55]: 39.9 µM
TGI [56]: 4.77 µM
TGI [57]: > 100 µM
TGI [58]: > 100 µM
TGI [59]: > 100 µM

O=C1NC(N/N=C\C(O)C(O)C(O)C(O)CO)=N/C1=C\c1ccc(Cl)cc1 (configuration not stated)
TGI [1]: > 79.9 µM
TGI [2]: > 66.6 µM
TGI [4]: 23.7 µM
TGI [5]: 7.44 µM
TGI [6]: > 72.1 µM
TGI [7]: > 100 µM
TGI [8]: > 73.1 µM
TGI [9]: 15.2 µM
TGI [10]: 27.4 µM
TGI [11]: 34.7 µM
TGI [12]: 19.3 µM
TGI [13]: 6.68 µM
TGI [14]: 91.5 µM
TGI [15]: 1.01 µM
TGI [16]: 18.5 µM
TGI [17]: > 40.4 µM
TGI [18]: > 100 µM
TGI [19]: 12.8 µM
TGI [20]: > 80.7 µM
TGI [21]: 32.3 µM
TGI [22]: > 100 µM
TGI [23]: 9.99 µM
TGI [24]: 15.3 µM
TGI [25]: 24.6 µM
TGI [26]: 25.6 µM
TGI [27]: > 100 µM
TGI [28]: 31.9 µM
TGI [29]: 36.3 µM
TGI [30]: 21.2 µM
TGI [31]: 10.6 µM
TGI [32]: 5.63 µM
TGI [33]: 18.1 µM
TGI [34]: 26 µM
TGI [35]: 37.4 µM
TGI [36]: > 100 µM
TGI [37]: 14.1 µM
TGI [38]: 38.9 µM
TGI [39]: 31.4 µM
TGI [40]: > 100 µM
TGI [41]: > 100 µM
TGI [42]: 10.9 µM
TGI [43]: > 73.3 µM
TGI [44]: > 59.1 µM
TGI [45]: 6.88 µM
TGI [46]: > 100 µM
TGI [47]: 10.5 µM
TGI [48]: 40.6 µM
TGI [49]: 6.04 µM
TGI [50]: 39.9 µM
TGI [51]: 5.95 µM
TGI [52]: 36.3 µM
TGI [53]: 31.4 µM
TGI [54]: 23.1 µM
TGI [55]: 3.14 µM
TGI [56]: 7.46 µM
TGI [57]: 18.1 µM
TGI [58]: 31.5 µM
TGI [59]: 7.5 µM
